Experimental findings from US20180207228A1, “PEPTIDE COMBINATIONS AND USES THEREOF FOR TREATING GRASS ALLERGY” (ALK-Abelló A/S, priority 2015, published 2018) are described below.

Where no end group is shown, it is not given here.

This assay concerns allergen specific T cells. The assay can be described thus: T cell proliferation assay (72 h) on donor derived T cell lines (TCL02/TCL03). In kind it is cell-based, human. To be noted: for Proliferation % donor coverage (TCL-02 DK1): T cell lines TCL-02 DK1, 30 donors, hit criteria SI>=2, CPM>=1000; for Proliferation strength (TCL-02 DK1): T cell lines TCL-02 DK1, strength of response (average relative magnitude); for donor coverage of homologue peptide compared with native Phleum peptide: TCL-02 DK-2, 21 donors; for average relative magnitude: reference peptides of WO2010/089554, proliferation only. The text has this: Isolated PBMCs (peripheral blood mononuclear cells) obtained from the donors described in Example 2 were CD8 depleted and the T cell lines were established by stimulating the cultures with nPhl p1, mix of nPhl p 2 and […] 5 and […] established for each of the donors tested by stimulating with the mixture of above listed allergens. Grass allergic donors were recruited (cohort DK1 including 30 grass allergic individuals, DK2 including 24 grass allergic individuals and US1 including 15 grass allergic individuals). PBMCs were isolated from freshly drawn heparinized blood by gradient centrifugation on lymphoprep (Nycomed, Norway), washed twice and re-suspended in RPMI 1640 medium with HEPES and ultraglutamine (Cambrex, Belgium) supplemented with 5% v/v human AB-serum (Cambrex, Belgium), 100 units/ml penicillin, and 0.1 mg/ml streptomycin (Sigma, St Louis, USA) (referred to as 5% AB-medium). Aliquots of the isolated PBMCs were frozen and were thawed later to stimulate the T cell lines. Additionally either fresh or thawed PBMCs were used as antigen presenting cells (APCs) in the proliferation assay as described later. In some cases the PBMCs were freezed at this stage and thawed later on to continue the experiment as described in the following. The isolated PBMCs (fresh or thawed) were CD8 depleted by MACS magnetic depletion according to the manufacturer's instructions (Miltenyi Biotec, Bergisch Gladbach, Germany). On day 0 the CD8-depleted PBMCs (2×10^6/ml) were stimulated in 1 ml bulk cultures in AB medium in 24 well plates (Nunc, Denmark) with the mixture of natural allergens: nPhl p 1 (0.5 μg/ml), mix of […]). […] On day 14 cells were harvested to obtain T cell line generation 01 (referred to as TCL01). Restimulation of T cell lines were performed in AB-medium with the thawed autologous PBMCs (10^6/well, irradiated 2500 Rad), the above mixture of natural allergens (concentration as mentioned above), and PHA-P (0.5 μg/ml, Difco, Detroit, Mich., USA). rIL-2 was added at day 17, 18 and 19. On day 24 cells were harvested to obtain T cell line generation 02 (referred as TCL02). T cells were isolated, washed, counted and used for T cell proliferation assay as described later. Remaining cells were frozen for later thawing and re-stimulations. The T cell line generation 2 (TCL02) were thawed and were re-stimulated with allogeneic Epstein Bar Virus transformed lymphoblastoid cell lines (EBV) B cells (JY cells, 10^5/well, irradiated 3500 Rad), allogeneic PBMCs (10^6/well, irradiated 2500 Rad), and 0.5 μg/ml PHA-P and subsequent addition of rIL-2 at days 3-5 to generate T cell line generation 03 (referred to as TCL03). […] To summarize ELISpot experiments were carried out at day 14 (with TCL01) and proliferation assay on either day 24 (with TCL02) or at day 34 (with TCL03). […] To ensure that all T cell epitopes regions from the major and intermediate grass allergens of the grass were identified T cell screening was carried out with either overlapping peptides or selected peptides. […] These were overlapping 20-mer peptides spanning the entire full length amino acid sequence of […] and selected high binder peptides from Phl p 4 were tested. Additionally 21, 15 mer peptides were tested which were derived from various group 1 and 5 allergens. Also, 67 peptides from homologous grass allergens were tested. Finally some reference peptides and mixes thereof were also tested. The 15-mer peptides were selected on the basis of predicted and measured promiscuous HLA binding and of sequence homology between known proteins sequences from the relevant pooideae grasses and the Bermuda grass. […] To get comprehensive data from all the donors the peptides were tested in both Fluorospot/Elispot (day 14, TCL01) and proliferation (day 24, TCL02).

Turning to `CC[C@H](C)[C@H](NC(=O)[C@H](C)NC(=O)[C@H](CCCCN)NC(=O)[C@@H](NC(=O)[C@H](CC(C)C)NC(=O)[C@H](C)NC(=O)[C@H](C)NC(=O)[C@H](CCC(=O)O)NC(=O)[C@H](Cc1ccccc1)NC(=O)[C@@H](NC(=O)[C@H](C)NC(=O)[C@H](Cc1ccc(O)cc1)NC(=O)[C@H](CCCCN)NC(=O)[C@@H](NC(=O)[C@H](CCC(=O)O)NC(=O)[C@@H]1CCCN1C(=O)[C@@H](N)CCCCN)C(C)C)C(C)C)[C@@H](C)O)C(=O)N[C@H](C(=O)O)[C@@H](C)O` [compound 242], the “Proliferation % donor coverage (TCL-02 DK1)” value (“Proliferation % donor coverage” below) stood at 48.28% and the “Proliferation strength (TCL-02 DK1)” value was 7.20.

For the compound `CC[C@H](C)[C@H](NC(=O)[C@H](CCCCN)NC(=O)[C@H](CCC(=O)O)NC(=O)[C@@H](NC(=O)[C@H](CC(C)C)NC(=O)[C@H](CCCCN)NC(=O)[C@H](CCC(N)=O)NC(=O)[C@@H](N)CCC(=O)O)[C@@H](C)CC)C(=O)N[C@@H](CC(N)=O)C(=O)N[C@@H](C)C(=O)NCC(=O)N[C@@H](Cc1ccccc1)C(=O)N[C@@H](CCCCN)C(=O)N[C@@H](C)C(=O)N[C@@H](C)C(=O)N[C@H](C(=O)N[C@@H](C)C(=O)N[C@@H](C)C(=O)N[C@@H](C)C(=O)N[C@@H](C)C(=O)O)C(C)C` [compound 341], the “donor coverage of homologue peptide compared with native Phleum peptide” value (2 μg/ml) is given as “better donor coverage than the native peptides”. With `CC[C@H](C)[C@H](NC(=O)[C@@H](NC(=O)[C@H](CCCNC(=N)N)NC(=O)[C@H](CC(C)C)NC(=O)[C@H](C)NC(=O)[C@H](CCC(=O)O)NC(=O)[C@@H](NC(=O)[C@H](CC(C)C)NC(=O)[C@@H](NC(=O)[C@H](C)NC(=O)[C@@H](NC(=O)[C@H](Cc1ccc(O)cc1)NC(=O)[C@H](C)NC(=O)[C@H](CC(=O)O)NC(=O)[C@H](Cc1ccc(O)cc1)NC(=O)[C@H](CCCCN)NC(=O)[C@H](C)NC(=O)[C@@H](N)CCC(=O)O)C(C)C)[C@@H](C)O)[C@@H](C)O)C(C)C)C(=O)N[C@@H](C)C(=O)NCC(=O)O` [compound 345], under “2 μg/ml”, the “donor coverage of homologue peptide compared with native Phleum peptide” value is given as “comparable donor coverage”.

For the compound `CC(C)[C@H](NC(=O)[C@@H](NC(=O)[C@H](Cc1ccccc1)NC(=O)[C@H](CCCCN)NC(=O)[C@H](CC(=O)O)NC(=O)[C@H](CC(N)=O)NC(=O)[C@H](C)NC(=O)[C@@H]1CCCN1C(=O)[C@H](C)NC(=O)[C@H](C)NC(=O)[C@H](CC(N)=O)NC(=O)[C@H](C)NC(=O)[C@H](C)NC(=O)[C@@H](NC(=O)[C@H](C)NC(=O)[C@H](C)NC(=O)[C@@H](NC(=O)[C@@H](N)CCCNC(=N)N)[C@@H](C)O)[C@@H](C)O)[C@@H](C)O)C(=O)N[C@@H](Cc1ccccc1)C(=O)N[C@@H](CCC(=O)O)C(=O)O` [compound 348], the “donor coverage of homologue peptide compared with native Phleum peptide” value (2 μg/ml) is “comparable donor coverage”.

`CC[C@H](C)[C@H](NC(=O)[C@H](Cc1ccccc1)NC(=O)[C@H](C)NC(=O)[C@H](CC(=O)O)NC(=O)[C@H](Cc1ccc(O)cc1)NC(=O)[C@H](CCCCN)NC(=O)[C@H](C)NC(=O)[C@@H](N)CCC(=O)O)C(=O)N[C@@H](C)C(=O)N[C@@H](C)C(=O)N[C@@H](CC(C)C)C(=O)N[C@H](C(=O)N[C@@H](CCC(=O)O)C(=O)N[C@@H](C)C(=O)N[C@@H](CC(C)C)C(=O)N[C@@H](CCCNC(=N)N)C(=O)N[C@H](C(=O)N[C@H](C(=O)N[C@@H](C)C(=O)NCC(=O)O)[C@@H](C)CC)C(C)C)[C@@H](C)O` [compound 358]: for the setting “2 μg/ml”, the “donor coverage of homologue peptide compared with native Phleum peptide” value is “comparable donor coverage”. In the case of APEVKYAVFEAGLTKAITAM-OH [compound 365], the “donor coverage of homologue peptide compared with native Phleum peptide” value (2 μg/ml) is recorded as “loose some of the donor coverage”. In the case of ASRRPWWASVPPADKFKTFA-OH [compound 356], the “donor coverage of homologue peptide compared with native Phleum peptide” value (2 μg/ml) was “loose some of the donor coverage”. Take “Ac-WGAIWRIDTPDKLTGPFTVR-NH2 [compound 259]”: for the setting “2 μg/ml, TCL03-DK1 and DK2, 27 donors”, the “T cell coverage of modified peptide compared to the parent peptide” value is reported as “markedly increased T cell coverage”. In the case of DKYKTFVETFGTATNKAFVE-OH [compound 343], the “donor coverage of homologue peptide compared with native Phleum peptide” value (2 μg/ml) is “better donor coverage than the native peptides”. With FIPMKSSWGA-OH [compound 135], the “Proliferation % donor coverage” value was found to be 13.79% and the “Proliferation strength (TCL-02 DK1)” value turned out to be 1.50. In the case of GFKAAVAAAAVVPPADKYKT-OH [compound 342], the “donor coverage of homologue peptide compared with native Phleum peptide” value (2 μg/ml) is “better donor coverage than the native peptides”. On to GLGSRASYEIKSKEPVESSG-OH [compound 313], for which the “donor coverage of homologue peptide compared with native Phleum peptide” value (2 μg/ml) is “low in donor coverage”. As for GRGSGSSFEIKSTKPESSSG-OH [compound 301], the “donor coverage of homologue peptide compared with native Phleum peptide” value (2 μg/ml) is listed as “comparable to the native peptides”. On to IDKVDAAYRTAATAANAAPA-OH [compound 347], for which, for the setting “2 μg/ml”, the “donor coverage of homologue peptide compared with native Phleum peptide” value is listed as “comparable donor coverage”. The same measure, in the same setting: the same measure for IRLTSEGGAHLVQDDVIPAN-OH [compound 323]: “low in donor coverage”; for KDKWIELKESWGAVWRIDTP-OH [compound 308]: “comparable to the native peptides”. With KFIPTLVAAVKQAYAAKQ-OH [compound 138], the “Proliferation % donor coverage” value was 31.03% and the “Proliferation strength (TCL-02 DK1)” value is on record as 4.20.

For KFIPTLVAAVKQAYAAKQAT-OH [compound 351], under “2 μg/ml”, the “donor coverage of homologue peptide compared with native Phleum peptide” value is “loose some of the donor coverage”.

For KKPEVKYAVFEAALTKAIT-OH [compound 143], the “Proliferation % donor coverage” value amounted to 48.28%, the “Proliferation strength (TCL-02 DK1)” value was found to be 7.50 and the average relative magnitude entry was “around 8”.

Take KSSWGAIWRIDPKKPLK-OH [compound 136]: the “Proliferation % donor coverage” value is 17.24% and the “Proliferation strength (TCL-02 DK1)” value is on record as 1.90. For KYDAYVATLTEALR-OH [compound 137], the “Proliferation % donor coverage” value amounted to 27.59% and the “Proliferation strength (TCL-02 DK1)” value was determined as 6.30. In the case of LKKAVTAMSEAEK-OH [compound 139], the “Proliferation % donor coverage” value was determined as 20.69% and the “Proliferation strength (TCL-02 DK1)” value was found to be 2.80. With LVQDDVIPANWKPDTVYTSK-OH [compound 324], under “2 μg/ml”, the “donor coverage of homologue peptide compared with native Phleum peptide” value was “low in donor coverage”. As for PEVKYAVFEAALTKAIT-OH [compound 140], the “Proliferation % donor coverage” value was found to be 55.17%, the “Proliferation strength (TCL-02 DK1)” value is 8.20 and the average relative magnitude entry is given as “around 8”. Take PTPRTPPLLPPPRARDKATL-OH [compound 355]: the “donor coverage of homologue peptide compared with native Phleum peptide” value (2 μg/ml) is given as “better donor coverage than the native peptides”. Turning to SDEFIPMKSSWGAIWRIDPK-OH [compound 321], the “donor coverage of homologue peptide compared with native Phleum peptide” value (2 μg/ml) is “comparable to the native peptides”. On to SEFEDVIPEGWKADTSYSAK-OH [compound 311], for which, for the setting “2 μg/ml”, the “donor coverage of homologue peptide compared with native Phleum peptide” value is on record as “low in donor coverage”. Consider “SGKAFGAMAKKGQED-OH [compound 134, SGKAFGAMAKKGQED]”, for which the “Proliferation % donor coverage” value was 27.59% and the “Proliferation strength (TCL-02 DK1)” value was found to be 4.00. With SLGAAYDSYKFIPTLVAAVK-OH [compound 350], where the note is “2 μg/ml”, the “donor coverage of homologue peptide compared with native Phleum peptide” value is listed as “loose some of the donor coverage”. On to TAATPATPATPATPAAVPSG [compound 340], for which, where the note is “2 μg/ml”, the “donor coverage of homologue peptide compared with native Phleum peptide” value is reported as “better donor coverage than the native peptides”. Take VRYTTEGGTKSEFEDVIPEG-OH [compound 310]: where the note is “2 μg/ml”, the “donor coverage of homologue peptide compared with native Phleum peptide” value is reported as “low in donor coverage”. For the compound WGAIWRIDPKKPLKGPFSIR-OH [compound 322], the “donor coverage of homologue peptide compared with native Phleum peptide” value (2 μg/ml) is “not recognized by the T cell lines”.
